Data on 36 compounds can be found in ChEMBL document CHEMBL1136529, “Synthesis and SAR of cis-1-benzoyl-1,2,3,4-tetrahydroquinoline ligands for control of gene expression in ecdysone responsive systems” (Bioorg Med Chem Lett, 2003).

The structures appear in SMILES notation.

Holding throughout (type): functional
For assay [1], the target named is T1, Ecdysone receptor (Aedes aegypti) (UniProt P49880).
T1 sequence (whole entry): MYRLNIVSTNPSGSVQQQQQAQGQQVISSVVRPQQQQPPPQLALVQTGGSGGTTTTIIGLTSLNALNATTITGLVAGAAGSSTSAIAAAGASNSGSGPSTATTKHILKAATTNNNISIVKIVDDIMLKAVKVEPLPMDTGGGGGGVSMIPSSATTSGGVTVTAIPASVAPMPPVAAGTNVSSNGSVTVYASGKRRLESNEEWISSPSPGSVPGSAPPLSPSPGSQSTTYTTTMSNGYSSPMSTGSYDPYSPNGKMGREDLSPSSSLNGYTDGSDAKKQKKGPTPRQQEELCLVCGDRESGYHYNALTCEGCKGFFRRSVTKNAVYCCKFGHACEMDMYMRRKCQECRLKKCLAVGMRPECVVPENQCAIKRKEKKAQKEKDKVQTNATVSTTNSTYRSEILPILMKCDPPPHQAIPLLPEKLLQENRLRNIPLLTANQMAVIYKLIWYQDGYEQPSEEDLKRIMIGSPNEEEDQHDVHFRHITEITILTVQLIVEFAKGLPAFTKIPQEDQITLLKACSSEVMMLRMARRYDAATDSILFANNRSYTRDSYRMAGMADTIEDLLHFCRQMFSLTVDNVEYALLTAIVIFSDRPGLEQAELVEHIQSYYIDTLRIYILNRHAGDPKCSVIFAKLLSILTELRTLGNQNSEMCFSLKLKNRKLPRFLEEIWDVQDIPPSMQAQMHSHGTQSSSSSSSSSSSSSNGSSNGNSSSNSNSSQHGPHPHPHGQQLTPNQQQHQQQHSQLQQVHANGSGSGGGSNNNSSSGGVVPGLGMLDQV
Description: Fold induction of ecdysone-dependent transactivation in mammalian cell line expressing Aedes aegypti ecdysone receptor at 33 uM.

In another assay the target is T2, Ecdysone receptor (Aedes aegypti, UniProt P49880).
T2 sequence (P49880 whole entry): T1 sequence (whole entry)
Description: Effective concentration for ecdysone-dependent transactivation in mammalian cell line expressing Aedes aegypti ecdysone receptor.

In assay [2] the target is T1, Ecdysone receptor (Aedes aegypti). Description: Ratio of maximal ecdysone-dependent transactivation in cell line expressing Aedes aegypti ecdysone receptor compared to cpd2.

One may read the EC50 as the midpoint of the concentration-response curve. A low value points to higher potency in that assay. As for `Cc1ccc(N[C@H]2C[C@@H](C)N(C(=O)c3ccccc3F)c3ccc(C)cc32)cc1`, the Fold induction in assay [1] worked out at 5. The compound also came in with an EC50 at Ecdysone receptor above 33300 nM. Also, in assay [2], the Rel Max FI was found to be 0.01.
`C[C@@H]1C[C@H](Nc2ccc(F)cc2)c2cc(F)ccc2N1C(=O)c1ccccc1` displayed a Fold induction in assay [1] of 283. Besides, on Ecdysone receptor, the half-maximal effective concentration (EC50) was 1730 nM. In addition, the Rel Max FI in assay [2] came to 0.76.
In turn, `C[C@@H]1C[C@H](Nc2ccccc2)c2ccccc2N1C(=O)c1ccc(C(F)(F)F)cc1` returned a Fold induction in assay [1] of 89. Further, at Ecdysone receptor, it took 1180 nM to reach a half-maximal effect (EC50). In addition, the Rel Max FI in assay [2] was 0.64.
`Cc1ccc(N[C@H]2C[C@@H](C)N(C(=O)c3cccc(F)c3)c3ccc(C)cc32)cc1`: the Fold induction in assay [1] came to 102. Moreover, the concentration giving a half-maximal response (EC50) on Ecdysone receptor came to 3000 nM. In addition, the Rel Max FI in assay [2] was 0.27.
`Cc1ccc(C(=O)N2c3ccc(F)cc3[C@@H](Nc3ccc(F)cc3)C[C@H]2C)cc1` displayed a Fold induction in assay [1] of 91. It took 870 nM to reach a half-maximal effect at Ecdysone receptor (EC50). The Rel Max FI in assay [2] worked out at 0.67.
Regarding `C[C@@H]1C[C@H](Nc2ccc(F)cc2)c2cc(F)ccc2N1C(=O)c1ccccc1F`, the Fold induction in assay [1] was determined as 78. The compound further had an EC50 on Ecdysone receptor of 3000 nM. For the same compound, the Rel Max FI in assay [2] is 0.28.
The compound `C[C@@H]1C[C@H](Nc2ccccc2)c2ccccc2N1C(=O)c1ccccc1C(F)(F)F` came in with a Fold induction in assay [1] of 1.
The compound `COc1ccccc1C(=O)N1c2ccc(F)cc2[C@@H](Nc2ccc(F)cc2)C[C@H]1C` displayed a Fold induction in assay [1] of 4. Also, on Ecdysone receptor, the EC50 was above 33300 nM. The Rel Max FI in assay [2] is 0.01.
In assay [1], `COc1ccc(C(=O)N2c3ccc(F)cc3[C@@H](Nc3ccc(F)cc3)C[C@H]2C)cc1` showed a Fold induction of 110. The same compound came in with an EC50 at Ecdysone receptor of 1140 nM. The Rel Max FI in assay [2] was 0.87.
`CCc1c(OC)cccc1C(=O)NN(C(=O)c1cc(C)cc(C)c1)C(C)(C)C` yielded a 50% effective concentration (EC50) at Ecdysone receptor of 440 nM.
With `Cc1ccc(N[C@H]2C[C@@H](C)N(C(=O)c3ccccc3C(F)(F)F)c3ccc(C)cc32)cc1`, in assay [1], the Fold induction came out at 12. The EC50 on Ecdysone receptor was above 33300 nM. Besides, in assay [2], the Rel Max FI was found to be 0.04.
In assay [1], `Cc1ccc(N[C@H]2C[C@@H](C)N(C(=O)c3ccccc3)c3ccc(C)cc32)cc1` gave a Fold induction of 35. On Ecdysone receptor, the EC50 came out at 5400 nM. The Rel Max FI in assay [2] was found to be 0.19.
The compound `C[C@@H]1C[C@H](Nc2ccc(F)cc2)c2cc(F)ccc2N1C(=O)c1ccccc1C(F)(F)F` displayed a Fold induction in assay [1] of 64. For the same compound, on Ecdysone receptor, the midpoint of the response, the EC50, lay at 11000 nM. For the same compound, the Rel Max FI in assay [2] was 0.32.
As for `Cc1ccc(N[C@H]2C[C@@H](C)N(C(=O)c3ccc(C(F)(F)F)cc3)c3ccc(C)cc32)cc1`, in assay [1], the Fold induction came to 69. On Ecdysone receptor, this compound gave an EC50 of 4410 nM. In assay [2], the Rel Max FI came to 0.23.
`Cc1ccccc1C(=O)N1c2ccc(F)cc2[C@@H](Nc2ccc(F)cc2)C[C@H]1C` gave a Fold induction in assay [1] of 158. In addition, at Ecdysone receptor, the concentration giving a half-maximal response (EC50) was determined as 3190 nM. Besides, in assay [2], the Rel Max FI is 0.5.
`COc1ccccc1C(=O)N1c2ccc(C)cc2[C@@H](Nc2ccc(C)cc2)C[C@H]1C`: the Fold induction in assay [1] was determined as 0.
For `COc1ccc(C(=O)N2c3ccccc3[C@@H](Nc3ccccc3)C[C@H]2C)cc1`, in assay [1], the Fold induction came out at 64. Also, the midpoint of the response on Ecdysone receptor, the EC50, lay at 1430 nM. The Rel Max FI in assay [2] worked out at 0.44.
In assay [1], `Cc1ccc(C(=O)N2c3ccccc3[C@@H](Nc3ccccc3)C[C@H]2C)cc1` had a Fold induction of 64. At Ecdysone receptor, this compound came in with an EC50 of 990 nM. In addition, in assay [2], the Rel Max FI turned out to be 0.42.
For `C[C@@H]1C[C@H](Nc2ccccc2)c2ccccc2N1C(=O)c1cccc(C(F)(F)F)c1`, the Fold induction in assay [1] worked out at 28. The midpoint of the response on Ecdysone receptor, the EC50, lay at 1210 nM. In addition, the Rel Max FI in assay [2] was 0.42.
In assay [1], `COc1cccc(C(=O)N2c3ccccc3[C@@H](Nc3ccccc3)C[C@H]2C)c1` gave a Fold induction of 9. At Ecdysone receptor, this compound returned an EC50 of 700 nM. In assay [2], the Rel Max FI amounted to 0.15.
With `C[C@@H]1C[C@H](Nc2ccc(F)cc2)c2cc(F)ccc2N1C(=O)c1cccc(C(F)(F)F)c1`, the Fold induction in assay [1] was 89. The compound also gave an EC50 on Ecdysone receptor of 1000 nM. Moreover, the Rel Max FI in assay [2] was determined as 0.93.
`Cc1ccc(N[C@H]2C[C@@H](C)N(C(=O)c3cccc(C)c3)c3ccc(C)cc32)cc1`: in assay [1], the Fold induction was 6. The compound also returned an EC50 on Ecdysone receptor above 33300 nM. Moreover, the Rel Max FI in assay [2] was determined as 0.01.
In assay [1], `COc1cccc(C(=O)N2c3ccc(C)cc3[C@@H](Nc3ccc(C)cc3)C[C@H]2C)c1` yielded a Fold induction of 3. The compound further displayed a concentration for a half-maximal effect (EC50) at Ecdysone receptor above 33300 nM. In addition, the Rel Max FI in assay [2] turned out to be 0.01.
In assay [1], `C[C@@H]1C[C@H](Nc2ccc(F)cc2)c2cc(F)ccc2N1C(=O)c1cccc(F)c1` showed a Fold induction of 204. Further, the concentration giving a half-maximal response (EC50) on Ecdysone receptor amounted to 990 nM. Besides, the Rel Max FI in assay [2] came out at 0.57.
The corresponding values for `C[C@@H]1C[C@H](Nc2ccccc2)c2ccccc2N1C(=O)c1ccccc1` are 20, 1120 nM and 0.07.
For the compound `COc1ccc(C(=O)N2c3ccc(C)cc3[C@@H](Nc3ccc(C)cc3)C[C@H]2C)cc1`, the Fold induction in assay [1] turned out to be 57. Further, the response at Ecdysone receptor was half-maximal at 5320 nM (EC50). In addition, the Rel Max FI in assay [2] was found to be 0.09.
With `C[C@@H]1C[C@H](Nc2ccccc2)c2ccccc2N1C(=O)c1cccc(F)c1`, the Fold induction in assay [1] turned out to be 75. Further, the midpoint of the response at Ecdysone receptor, the EC50, lay at 750 nM. Moreover, in assay [2], the Rel Max FI came to 0.44.
For `Cc1ccc(N[C@H]2C[C@@H](C)N(C(=O)c3ccc(C)cc3)c3ccc(C)cc32)cc1`, in assay [1], the Fold induction came out at 121. Also, at Ecdysone receptor, it took 5000 nM to reach a half-maximal effect (EC50). Besides, the Rel Max FI in assay [2] is 0.26.
With `C[C@@H]1C[C@H](Nc2ccc(F)cc2)c2cc(F)ccc2N1C(=O)c1ccc(Cl)cc1`, the Fold induction in assay [1] came to 212. This compound yielded a half-maximal effective concentration (EC50) on Ecdysone receptor of 640 nM. For the same compound, the Rel Max FI in assay [2] is 0.7.
Consider `Cc1ccc(N[C@H]2C[C@@H](C)N(C(=O)c3ccc(Cl)cc3)c3ccc(C)cc32)cc1`, for which the Fold induction in assay [1] worked out at 43. At Ecdysone receptor, this compound had an EC50 of 2150 nM. For the same compound, in assay [2], the Rel Max FI amounted to 0.39.
Consider `Cc1ccc(N[C@H]2C[C@@H](C)N(C(=O)c3cccc(C(F)(F)F)c3)c3ccc(C)cc32)cc1`, for which the Fold induction in assay [1] worked out at 12. Further, the EC50 on Ecdysone receptor stood at 1840 nM. In addition, the Rel Max FI in assay [2] was 0.47.
For `C[C@@H]1C[C@H](Nc2ccccc2)c2ccccc2N1C(=O)c1ccc(Cl)cc1` the same measures were 130, 980 nM and 0.43.
On to `C[C@@H]1C[C@H](Nc2ccc(F)cc2)c2cc(F)ccc2N1C(=O)c1ccc(C(F)(F)F)cc1`, for which the Fold induction in assay [1] stood at 230. Moreover, the EC50 on Ecdysone receptor was determined as 920 nM. For the same compound, in assay [2], the Rel Max FI worked out at 0.63.
`Cc1ccc(N[C@H]2C[C@@H](C)N(C(=O)c3ccccc3C)c3ccc(C)cc32)cc1` had a Fold induction in assay [1] of 19. At Ecdysone receptor, this compound returned an EC50 of 8710 nM. Besides, the Rel Max FI in assay [2] is 0.04.
For `Cc1cccc(C(=O)N2c3ccc(F)cc3[C@@H](Nc3ccc(F)cc3)C[C@H]2C)c1` the same measures were 686, 1360 nM and 0.55.
In the case of `COc1cccc(C(=O)N2c3ccc(F)cc3[C@@H](Nc3ccc(F)cc3)C[C@H]2C)c1`, the Fold induction in assay [1] was 119. The same compound yielded an EC50 at Ecdysone receptor of 1480 nM. For the same compound, the Rel Max FI in assay [2] turned out to be 0.98.
